Target: T1, kGDH (Homo sapiens, UniProt Q02218)
T1 construct: Log-phase growing cells were trypsinized and resuspended in TDM; endogenous in cells
T1 sequence (Q02218 41-1023): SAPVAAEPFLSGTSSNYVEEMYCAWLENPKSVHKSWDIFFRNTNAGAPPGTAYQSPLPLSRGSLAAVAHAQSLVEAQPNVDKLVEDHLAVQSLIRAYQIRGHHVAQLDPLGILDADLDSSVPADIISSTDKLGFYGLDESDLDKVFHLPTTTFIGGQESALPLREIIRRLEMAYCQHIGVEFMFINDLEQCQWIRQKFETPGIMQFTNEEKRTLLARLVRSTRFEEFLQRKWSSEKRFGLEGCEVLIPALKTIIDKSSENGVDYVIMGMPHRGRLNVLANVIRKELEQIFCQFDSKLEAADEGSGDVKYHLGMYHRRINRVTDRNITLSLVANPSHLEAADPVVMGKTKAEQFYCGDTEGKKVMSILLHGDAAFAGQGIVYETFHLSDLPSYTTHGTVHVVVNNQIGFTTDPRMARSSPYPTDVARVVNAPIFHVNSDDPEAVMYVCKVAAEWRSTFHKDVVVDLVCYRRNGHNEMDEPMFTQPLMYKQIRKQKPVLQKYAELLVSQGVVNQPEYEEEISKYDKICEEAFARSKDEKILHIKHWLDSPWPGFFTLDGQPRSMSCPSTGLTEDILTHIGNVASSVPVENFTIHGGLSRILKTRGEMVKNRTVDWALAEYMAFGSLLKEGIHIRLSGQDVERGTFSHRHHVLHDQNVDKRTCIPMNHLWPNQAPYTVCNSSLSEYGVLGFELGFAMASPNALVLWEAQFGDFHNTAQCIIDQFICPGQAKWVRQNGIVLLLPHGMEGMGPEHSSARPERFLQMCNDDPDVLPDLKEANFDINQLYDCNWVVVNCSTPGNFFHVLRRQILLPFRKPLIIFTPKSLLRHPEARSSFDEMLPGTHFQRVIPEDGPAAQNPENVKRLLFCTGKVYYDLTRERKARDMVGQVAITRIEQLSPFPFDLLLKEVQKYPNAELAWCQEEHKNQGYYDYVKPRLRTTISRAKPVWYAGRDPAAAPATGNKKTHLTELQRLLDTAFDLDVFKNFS
T1 sequence (P36957 68-453 partner): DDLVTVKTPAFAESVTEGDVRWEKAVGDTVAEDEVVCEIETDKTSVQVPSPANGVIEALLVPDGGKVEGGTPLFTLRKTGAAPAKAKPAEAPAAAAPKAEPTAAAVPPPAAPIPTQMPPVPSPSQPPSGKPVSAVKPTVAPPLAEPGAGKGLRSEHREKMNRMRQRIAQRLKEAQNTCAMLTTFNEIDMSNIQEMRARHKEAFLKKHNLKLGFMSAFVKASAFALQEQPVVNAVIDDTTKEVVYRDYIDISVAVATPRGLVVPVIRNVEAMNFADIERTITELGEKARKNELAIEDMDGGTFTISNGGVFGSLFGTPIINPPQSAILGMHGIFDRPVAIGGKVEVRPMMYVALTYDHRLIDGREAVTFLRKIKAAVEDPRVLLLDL
T1 sequence (P09622 36-509 partner): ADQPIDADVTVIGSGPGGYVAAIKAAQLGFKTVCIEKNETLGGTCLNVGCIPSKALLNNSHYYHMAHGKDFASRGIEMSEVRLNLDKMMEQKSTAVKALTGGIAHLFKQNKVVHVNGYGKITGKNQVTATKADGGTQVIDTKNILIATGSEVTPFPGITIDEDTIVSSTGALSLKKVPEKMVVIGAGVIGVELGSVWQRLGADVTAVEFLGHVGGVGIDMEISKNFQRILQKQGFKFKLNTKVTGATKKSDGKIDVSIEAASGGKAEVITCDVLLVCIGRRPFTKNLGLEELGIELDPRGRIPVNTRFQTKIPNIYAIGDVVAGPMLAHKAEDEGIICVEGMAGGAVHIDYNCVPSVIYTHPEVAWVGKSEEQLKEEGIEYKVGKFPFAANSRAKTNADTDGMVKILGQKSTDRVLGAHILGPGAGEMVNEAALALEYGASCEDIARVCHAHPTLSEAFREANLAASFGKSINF
Assay: Cell-based kGDH inhibition in thiamine-depleted media, 96-well format
Details: treated cells, 48 hours treatment
Description: We determined the IC50 of compounds that inhibit the activity of the TPP utilizing enzymes TK, kGDH and PDH in a convenient 96-well format using an optimized version of the method described in the previous Examples.
The high thiamine levels in conventional cell culture media (e.g., DMEM (12 μM), RPMI (3 μM)) masks the inhibitory effect of such inhibitors. To measure the IC50 of such inhibitors, thus, a thiamine depleted DMEM, containing all the ingredients of normal DMEM except for thiamine (HyClone, custom order), was used. Thiamine-depleted media (TDM) is made up with thiamine-depleted DMEM, 10% FBS, which contains negligible amount of thiamine (estimated to be ˜3-5% nM) and 1% Penicillin-streptomycin.
Log-phase growing cells were trypsinized and resuspended in TDM. Optimization of the initial cell counts is recommended for each cell line to ensure that enzyme activity can be observed at the beginning and that healthy growth can continue. For cell lines that have a doubling time of approximately 24 hours and cellular transketolase levels high enough to be reliably detected with five thousand (5K) cells such as HCT116 and HT1080, 8K cells are recommended.
Media containing 8K cells (95 μl) were used to seed individual wells in a 96-well clear-bottom cell cultured treated sterile plate. […] Enzymatic inhibition was expressed as percent of control wells that were not treated with compounds. […]

IC50: 86 nM
Compound: Cc1ccc(C[n+]2csc(CCO)c2C)c(N)n1 [N3PT, 3-[(2-amino-6-methyl-3-pyridinyl)methyl]-5-(2-hydroxyethyl)-4-methyl thiazolium]

From patent US20070292888A1, “Methods for Measuring Enzyme Activities in Cells, Blood, Tumors and Tissues” (GEN-PATH PHARMACEUTICALS, INC., priority 2004, published 2007)
